Laboratory results reported in patent US20170190671A1, “BIS(ARYL)CATECHOL DERIVATIVES AS HERBICIDES” (E I DU PONT DE NEMOURS AND COMPANY, priority 2014, published 2017).

Assays:
Assay in all cases: Test C postemergence
Assay type in all cases: in vivo
[1] = tested on: Italian ryegrass (Lolium multiflorum); settings: Lolium multiflorum, post-emergence, 336 h, Postemergence, scale 0 to 100, read-out: Plant response rating, Ryegrass, Italian
In short: (§1)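 Seeded loam-sand soil (preemergence) or young potted plants of 2-18 cm (postemergence) received test chemical formulated with surfactant in a non-phytotoxic solvent. Pots were kept in the greenhouse for 13-15 days before a visual 0-100 control rating relative to controls.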

[2] = tested on: barnyardgrass (Echinochloa crus-galli); settings: Echinochloa crus-galli, post-emergence, Postemergence, scale 0 to 100, read-out: Plant response rating, Barnyardgrass
In short: as §1

[3] = tested on: blackgrass (Alopecurus myosuroides); settings: Alopecurus myosuroides, post-emergence, 336 h, Postemergence, scale 0 to 100, read-out: Plant response rating, Blackgrass
In short: as §1

[4] = tested on: corn (Zea mays); settings: Zea mays, post-emergence, 336 h, Postemergence, scale 0 to 100
In short: as §1

[5] = tested on: giant foxtail (Setaria faberii); settings: Setaria faberi, post-emergence, 336 h, Postemergence, scale 0 to 100, read-out: Plant response rating, Foxtail, Giant
In short: as §1

[6] = tested on: johnsongrass (Sorghum halepense); settings: Sorghum halepense, post-emergence, 336 h, Postemergence, scale 0 to 100, read-out: Plant response rating, Johnsongrass
In short: as §1

[7] = tested on: lambsquarters (Chenopodium album); settings: Chenopodium album, post-emergence, 336 h, Postemergence, scale 0 to 100, read-out: Plant response rating, Lambsquarters
In short: as §1

[8] = tested on: large (Lg) crabgrass (Digitaria sanguinalis); settings: Digitaria sanguinalis, post-emergence, 336 h, Postemergence, scale 0 to 100, read-out: Plant response rating, Crabgrass, Large
In short: as §1

[9] = tested on: morningglory (Ipomoea coccinea); settings: Ipomoea, post-emergence, 336 h, Postemergence, scale 0 to 100, read-out: Plant response rating, Morningglory
In short: as §1

[10] = tested on: oilseed rape (Brassica napus); settings: Brassica napus, post-emergence, Postemergence, scale 0 to 100, read-out: Plant response rating, Oilseed Rape
In short: as §1

[11] = tested on: ragweed (common ragweed, Ambrosia elatior); settings: Ambrosia artemisiifolia, post-emergence, 336 h, Postemergence, scale 0 to 100, read-out: Plant response rating, Ragweed
In short: as §1

[12] = tested on: soybean (Glycine max); settings: Glycine max, post-emergence, Postemergence, scale 0 to 100, read-out: Plant response rating, Soybean
In short: as §1

[13] = tested on: velvetleaf (Abutilon theophrasti); settings: Abutilon theophrasti, post-emergence, Postemergence, scale 0 to 100, read-out: Plant response rating, Velvetleaf
In short: as §1

[14] = tested on: winter wheat (Triticum aestivum); settings: Triticum aestivum, post-emergence, 336 h, Postemergence, scale 0 to 100, read-out: Plant response rating, Wheat
In short: as §1

## N#Cc1cccc(Oc2ncc(Cl)cn2)c1Oc1ccc(Cl)cn1 [Compound 16, 2-[(5-chloro-2-pyridinyl)oxy]-3-[(5-chloro-2-pyrimidinyl)oxy]benzonitrile]
[1]; 31 g ai/ha
  pest or weed control at 31 g/ha: 10%
[1]; 62 g ai/ha
  pest or weed control at 62 g/ha: 5%
[1]; 125 g ai/ha
  pest or weed control at 125 g/ha: 15%
[2]; 16 g ai/ha
  pest or weed control at 16 g/ha: 10%
[2]; 31 g ai/ha
  pest or weed control at 31 g/ha: 15%
[2]; 62 g ai/ha
  pest or weed control at 62 g/ha: 15%
[2]; 125 g ai/ha
  pest or weed control at 125 g/ha: 20%
[3]; 16 g ai/ha
  pest or weed control at 16 g/ha: 5%
[3]; 31 g ai/ha
  pest or weed control at 31 g/ha: 5%
[3]; 62 g ai/ha
  pest or weed control at 62 g/ha: 5%
[3]; 125 g ai/ha
  pest or weed control at 125 g/ha: 10%
[4]; 16 g ai/ha
  Corn plant response rating (crop injury, 0 = no effect, 100 = complete kill) at 16 g/ha: 10%
[4]; 31 g ai/ha
  Corn plant response rating (crop injury, 0 = no effect, 100 = complete kill) at 31 g/ha: 20%
[4]; 62 g ai/ha
  Corn plant response rating (crop injury, 0 = no effect, 100 = complete kill) at 62 g/ha: 10%
[4]; 125 g ai/ha
  Corn plant response rating (crop injury, 0 = no effect, 100 = complete kill) at 125 g/ha: 15%
[5]; 16 g ai/ha
  pest or weed control at 16 g/ha: 10%
[5]; 31 g ai/ha
  pest or weed control at 31 g/ha: 15%
[5]; 62 g ai/ha
  pest or weed control at 62 g/ha: 20%
[5]; 125 g ai/ha
  pest or weed control at 125 g/ha: 35%
[6]; 16 g ai/ha
  pest or weed control at 16 g/ha: 5%
[6]; 31 g ai/ha
  pest or weed control at 31 g/ha: 5%
[6]; 62 g ai/ha
  pest or weed control at 62 g/ha: 10%
[6]; 125 g ai/ha
  pest or weed control at 125 g/ha: 10%
[7]; 16 g ai/ha
  pest or weed control at 16 g/ha: 65%
[7]; 31 g ai/ha
  pest or weed control at 31 g/ha: 80%
[7]; 62 g ai/ha
  pest or weed control at 62 g/ha: 75%
[7]; 125 g ai/ha
  pest or weed control at 125 g/ha: 90%
[8]; 16 g ai/ha
  pest or weed control at 16 g/ha: 10%
[8]; 31 g ai/ha
  pest or weed control at 31 g/ha: 15%
[8]; 62 g ai/ha
  pest or weed control at 62 g/ha: 15%
[8]; 125 g ai/ha
  pest or weed control at 125 g/ha: 20%
[9]; 31 g ai/ha
  pest or weed control at 31 g/ha: 90%
[9]; 62 g ai/ha
  pest or weed control at 62 g/ha: 90%
[9]; 125 g ai/ha
  pest or weed control at 125 g/ha: 95%
[10]; 31 g ai/ha
  plant injury at 31 g/ha: 70%
[10]; 62 g ai/ha
  plant injury at 62 g/ha: 80%
[10]; 125 g ai/ha
  plant injury at 125 g/ha: 50%
[11]; 31 g ai/ha
  pest or weed control at 31 g/ha: 60%
[11]; 62 g ai/ha
  pest or weed control at 62 g/ha: 50%
[11]; 125 g ai/ha
  pest or weed control at 125 g/ha: 70%
[12]; 31 g ai/ha
  plant injury at 31 g/ha: 70%
[12]; 62 g ai/ha
  plant injury at 62 g/ha: 45%
[12]; 125 g ai/ha
  plant injury at 125 g/ha: 55%
[13]; 31 g ai/ha
  pest or weed control at 31 g/ha: 65%
[13]; 62 g ai/ha
  pest or weed control at 62 g/ha: 60%
[13]; 125 g ai/ha
  pest or weed control at 125 g/ha: 70%
[14]; 31 g ai/ha
  plant injury at 31 g/ha: 0%
[14]; 62 g ai/ha
  plant injury at 62 g/ha: 5%
[14]; 125 g ai/ha
  plant injury at 125 g/ha: 0%
